# Reference: US8226943B2, “Antibodies to notch receptors” (OncoMed Pharmaceuticals, Inc., priority 2008, dated 2012)
# Tests used:
# [1] = test system: breast tumor xenograft line OMP-B44; assay: OMP-B44 breast tumor xenograft growth; assay type: in vivo, NOD/SCID mice; details: established tumors, 15 mg/kg once a week
# Method: The 59R1 IgG2 antibody was also tested in vivo in the breast tumor xenograft lines OMP-B34, OMP-B39, OMP-B44, PE13, and UM-T1, the pancreas tumor xenograft line OMP-PN8, and the colon tumor xenograft line OMP-C8. These tumor xenograft lines were established by adhering to procedures described in Al-Hajj et al., 2003, Proc. Natl. Acad. Sci. USA, 100:3983-3988. Female NOD/SCID immuno-compromised mice 7-10 weeks old were used for the establishment of the breast tumor xenografts and male NOD/SCID mice were used for the OMP-Pn8 and OMP-C8 tumor-models (Harlan, Indianapolis, Ind.). The 59R1 IgG2 antibody was also tested in vivo in a Colo-205 colon tumor xenograft model. Female immunodeficient bg/nu XID mice on a Swiss CD-1 background were used for the Colo-205 xenograft tumor model. In case of the breast cancer models, slow-releasing estrogen pellets (0.36 mg) had to be implanted. Mice were subcutaneously injected on the right flank with 50,000 (OMP-B34, OMP-B39, OMP-B44, PE13, and UM-T1) or 1×10^7 (Colo-205) viable cells, respectively, in a mixture of PBS (without magnesium or calcium) and Matrigel at a 1:1 ratio. […] Antibodies were administered weekly and tumors measured twice weekly. […] Tumor volume was calculated as described Al-Hajj et al. (2003). Data are expressed as the mean and the mean±S.E.M. Group means were compared using Student's two-tailed, unpaired t-test. […]
# [2] = target: T1, binding of DLL4 to the human Notch 2 receptor (Homo sapiens, UniProt Q04721); assay: FACS blocking of hDLL4 ECD-Fc binding to human Notch2 on HEK-293 cells; details: HEK-293 stably overexpressing human Notch2
# T1 construct: expressed in transfected cells; host or cells: HEK-293, stably overexpressing human Notch2
# Method: In addition, the 59R1 IgG2 antibody was assayed for its ability to block binding of DLL4 to the human Notch 2 receptor by FACS analysis. HEK-293 cells stably overexpressing human Notch2 were incubated with the antibody at various concentration and then detected for hNotch2 binding (FIG. 1C) by PE-conjugated goat anti-human Fc gamma specific antibody, or ligand blocking activity (FIG. 1D). Ligand blocking was determined by incubating the cells with human DLL4 ECD tagged with the rabbit Fc constant region and the 59R1 antibody at a range of concentrations, and then detecting the hDLL4 by PE-conjugated donkey anti-rabbit antibody. Binding of hNotch2 and ligand blocking activity were thus confirmed for the 59R1 IgG2 antibody.
# T3 breast tumor cells = assay: T3 breast tumor xenograft growth; assay type: in vivo, NOD/SCID mice
# Method: In certain embodiments, NOD/SCID mice injected with 50,000 PE13 or T3 breast tumor cells were treated with anti-Notch2/3 antibody 59R1 or control antibody 1B7.11 two days following cell injections. Antibodies were dosed at 10 mg/kg twice week.
# In a further experiment, anti-Notch2/3 antibodies were tested for an effect on breast tumor growth. NOD/SCID mice were injected with 50,000 PE13 or T3 breast tumor cells, and tumors were allowed to grow to a size of between 65 to 200 mm^3 after which mice were randomized (n=10 per experimental group), and antibodies administration begun. Animals were treated with 15 mg/kg of either control 1B7.11 antibodies or anti-Notch2/3 59R1 antibodies twice weekly. Tumor size was measured twice weekly, and tumor volume was calculated as described (see Michieli et al., 2004).
# M4 melanoma tumor cells = assay: M4 melanoma xenograft growth; assay type: in vivo, NOD-SCID mice; details: 10 mg/kg twice per week
# Method: M4 melanoma tumor cells (10,000 cells per mouse) were injected subcutaneously into the flank region of NOD-SCID mice. Tumors were allowed to grow for 25 days until they had reached an average volume of ˜80 mm^3. Animals were randomized into treatment groups (n=10/group) and treatments were initiated. One group received a control antibody (1B711) at 10 mg/kg twice per week and one group received 59R1 at 10 mg/kg twice per week. Tumor volumes were measured on the indicated days.
# stroma of Colo205 tumors = assay: Microarray gene expression in stroma of treated xenograft tumors, Colo205; assay type: in vivo, mice; details: 59R1 vs control
# T1 sequence (Q04721 26-2471): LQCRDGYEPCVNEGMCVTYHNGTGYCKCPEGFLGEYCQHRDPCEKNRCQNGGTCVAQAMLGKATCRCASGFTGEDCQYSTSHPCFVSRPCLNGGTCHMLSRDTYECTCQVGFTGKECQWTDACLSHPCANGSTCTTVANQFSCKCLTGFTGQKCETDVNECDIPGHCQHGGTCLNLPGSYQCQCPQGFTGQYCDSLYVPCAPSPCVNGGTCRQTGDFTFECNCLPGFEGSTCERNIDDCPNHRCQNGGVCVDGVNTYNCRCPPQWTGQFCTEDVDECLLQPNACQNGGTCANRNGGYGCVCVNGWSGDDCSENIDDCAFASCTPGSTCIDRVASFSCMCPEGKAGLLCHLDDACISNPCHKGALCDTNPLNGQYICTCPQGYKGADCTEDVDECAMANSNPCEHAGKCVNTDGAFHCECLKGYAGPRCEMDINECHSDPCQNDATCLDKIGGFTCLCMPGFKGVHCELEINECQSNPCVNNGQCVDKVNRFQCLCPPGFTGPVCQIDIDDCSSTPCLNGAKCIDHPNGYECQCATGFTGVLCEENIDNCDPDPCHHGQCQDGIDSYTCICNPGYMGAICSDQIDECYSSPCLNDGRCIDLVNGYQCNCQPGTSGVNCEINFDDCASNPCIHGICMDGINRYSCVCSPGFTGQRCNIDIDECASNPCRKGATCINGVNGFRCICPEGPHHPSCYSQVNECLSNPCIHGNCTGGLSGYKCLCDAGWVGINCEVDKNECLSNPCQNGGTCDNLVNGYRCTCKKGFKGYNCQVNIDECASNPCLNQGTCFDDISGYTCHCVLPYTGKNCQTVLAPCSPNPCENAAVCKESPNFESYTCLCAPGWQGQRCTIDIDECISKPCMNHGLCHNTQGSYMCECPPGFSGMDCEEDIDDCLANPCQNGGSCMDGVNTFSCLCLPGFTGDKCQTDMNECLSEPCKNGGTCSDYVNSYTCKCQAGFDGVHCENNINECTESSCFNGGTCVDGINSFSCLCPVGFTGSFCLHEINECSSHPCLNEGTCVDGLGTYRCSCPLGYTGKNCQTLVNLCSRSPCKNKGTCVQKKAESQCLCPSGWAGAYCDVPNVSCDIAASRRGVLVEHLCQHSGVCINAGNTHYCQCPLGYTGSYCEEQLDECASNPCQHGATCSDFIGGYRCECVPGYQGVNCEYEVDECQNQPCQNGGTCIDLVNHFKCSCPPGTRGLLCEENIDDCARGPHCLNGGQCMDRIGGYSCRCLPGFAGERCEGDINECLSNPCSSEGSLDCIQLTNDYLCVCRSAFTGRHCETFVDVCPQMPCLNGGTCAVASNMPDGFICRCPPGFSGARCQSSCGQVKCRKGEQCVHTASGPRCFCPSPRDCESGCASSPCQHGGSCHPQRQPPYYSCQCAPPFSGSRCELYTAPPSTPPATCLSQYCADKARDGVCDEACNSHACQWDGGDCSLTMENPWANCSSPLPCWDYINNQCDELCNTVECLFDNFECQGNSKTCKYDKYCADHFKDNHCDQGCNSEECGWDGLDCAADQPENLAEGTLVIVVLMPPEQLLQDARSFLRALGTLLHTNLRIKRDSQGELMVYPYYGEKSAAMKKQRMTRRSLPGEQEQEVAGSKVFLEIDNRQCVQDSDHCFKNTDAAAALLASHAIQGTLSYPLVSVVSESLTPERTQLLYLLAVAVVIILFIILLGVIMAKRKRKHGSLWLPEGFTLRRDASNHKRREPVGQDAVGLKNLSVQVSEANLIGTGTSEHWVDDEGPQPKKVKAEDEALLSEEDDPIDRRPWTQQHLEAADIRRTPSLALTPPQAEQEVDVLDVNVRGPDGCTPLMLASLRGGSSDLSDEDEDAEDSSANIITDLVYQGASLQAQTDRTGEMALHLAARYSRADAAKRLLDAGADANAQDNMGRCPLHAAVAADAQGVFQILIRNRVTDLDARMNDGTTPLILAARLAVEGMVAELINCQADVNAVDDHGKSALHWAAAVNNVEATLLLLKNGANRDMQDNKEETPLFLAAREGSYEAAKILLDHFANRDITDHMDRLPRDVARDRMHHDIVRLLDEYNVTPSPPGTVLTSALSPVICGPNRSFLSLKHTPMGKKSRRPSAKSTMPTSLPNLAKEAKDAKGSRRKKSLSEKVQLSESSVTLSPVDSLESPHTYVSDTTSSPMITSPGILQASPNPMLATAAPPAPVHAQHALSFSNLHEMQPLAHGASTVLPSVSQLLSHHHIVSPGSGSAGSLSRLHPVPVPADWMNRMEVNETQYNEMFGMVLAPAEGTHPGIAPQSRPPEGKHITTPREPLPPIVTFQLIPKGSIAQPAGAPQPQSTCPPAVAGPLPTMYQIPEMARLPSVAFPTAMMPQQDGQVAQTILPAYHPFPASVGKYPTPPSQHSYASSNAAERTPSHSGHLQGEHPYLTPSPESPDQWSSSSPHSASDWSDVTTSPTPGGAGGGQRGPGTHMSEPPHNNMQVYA
substance,measurement,setting,value
59R1: human IgG2 antibody binding Notch2 and Notch3; heavy and light chain SEQ ID NO:16 and 18; ATCC PTA-9547,B44 breast cancer growth relative to control antibody,[1],inhibit breast cancer growth
same,blocking of hDLL4 binding to human Notch2 (FACS),[2],confirmed
same,T3 tumor growth compared to control,"T3 breast tumor cells; 10 mg/kg twice week, started two days following cell injections",significantly reduced
same,T3 tumor growth compared to control,"T3 breast tumor cells; established tumors, 15 mg/kg twice weekly",significantly reduced
same,M4 melanoma tumor growth,M4 melanoma tumor cells,inhibited
same,Fold 1416286_at (Rgs4),stroma of Colo205 tumors,−3.08
same,Fold 1418829_a_at (Eno2),stroma of Colo205 tumors,1.79
same,Fold 1419302_at (Heyl),stroma of Colo205 tumors,−3.28
same,Fold 1420941_at (Rgs5),stroma of Colo205 tumors,−5.10
same,Fold 1422789_at (Aldh1a2),stroma of Colo205 tumors,−1.73
same,Fold 1428361_x_at (Hba-al/Hba-a2),stroma of Colo205 tumors,−8.91
same,Fold 1449280_at (Esm1),stroma of Colo205 tumors,2.07
same,Fold 1449632_s_at (Fkbp10),stroma of Colo205 tumors,−1.72
same,Fold 1459713_s_at (Tmem16a),stroma of Colo205 tumors,−1.90
